Experiments:
[1] = molecular target: human JAK1 (a.a. 837-1142) (Homo sapiens, UniProt P23458); assay: In vitro JAK kinase assay (HTRF), JAK1; assay type: biochemical; conditions: 1 mM ATP
Protocol: (§1) The catalytic activity of JAK1, JAK2, or JAK3 was assayed by measuring the phosphorylation of a biotinylated peptide. The phosphorylated peptide was detected by homogenous time resolved fluorescence (HTRF). […] Reactions are carried out at room temperature for 1 hour and then stopped with 20 μL 45 mM EDTA, 300 nM SA-APC, 6 nM Eu-Py20 in assay buffer (Perkin Elmer, Boston, Mass.). Binding to the Europium labeled antibody takes place for 40 minutes and HTRF signal was measured on a Fusion plate reader (Perkin Elmer, Boston, Mass.).

[2] = molecular target: human JAK2 (a.a. 828-1132) (Homo sapiens (Human), UniProt O60674); assay: In vitro JAK kinase assay (HTRF), JAK2 versus JAK1; assay type: biochemical; conditions: IC50 ratio, 1 mM ATP
Protocol: as §1

[3] = tested on: Human multiple myeloma cell lines KMS12BM, OPM2, MM1.R, MM1.S and KMS11; assay: Cell Titer Glo viability of multiple myeloma cell lines; assay type: cell-based; conditions: 72 hours, compared to DMSO treated controls, all five cell lines
Protocol: Human multiple myeloma cell lines KMS12BM, OPM2 (DSMZ), MM1.R, MM1.S (ATCC) and KMS11 (JCRB) were seeded into white 96 well plates (Greiner Bio One) at 10^4 cells in 100 μL media. Combinations of dexamethasone (Sigma), lenalidomide (Chemscene), itacitinib, or DMSO control were then added. Doses were selected based on pilot studies designed to find sensitivities of each cell line to these agents. Each dose combination was performed in triplicate. After 72 hours, Cell Titer Glo (Promega) assays were performed as per manufacturer protocol to assess cell viability.
Statistical analyses were performed using Prism Graphpad software. P values were calculated from unpaired t tests—*p<0.05; **p<0.01; ****p<0.0001).

Sequence of human JAK2 (a.a. 828-1132) (O60674 828-1132): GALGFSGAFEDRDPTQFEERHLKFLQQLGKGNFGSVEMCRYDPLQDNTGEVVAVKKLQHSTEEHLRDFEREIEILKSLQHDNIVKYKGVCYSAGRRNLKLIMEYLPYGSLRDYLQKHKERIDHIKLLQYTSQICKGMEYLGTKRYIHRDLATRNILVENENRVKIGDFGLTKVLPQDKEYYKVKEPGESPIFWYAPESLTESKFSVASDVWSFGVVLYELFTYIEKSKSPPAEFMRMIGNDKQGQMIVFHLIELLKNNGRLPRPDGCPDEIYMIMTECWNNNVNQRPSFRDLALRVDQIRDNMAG

IC50 [1]: < 10 nM
JAK2/JAK1 [2]: >10
SMILES: N#CCC1(n2cc(-c3ncnc4[nH]ccc34)cn2)CN(C2CCN(C(=O)c3ccnc(C(F)(F)F)c3F)CC2)C1 [Compound 1, {1-{1-[3-Fluoro-2-(trifluoromethyl)isonicotinoyl]piperidin-4-yl}-3-[4-(7H-pyrrolo[2,3-d]pyrimidin-4-yl)-1H-pyrazol-1-yl]azetidin-3-yl}acetonitrile]
cell viability [3]: no change in viability

Reference: patent US11324749B2, “Combination therapy for treatment of hematological diseases” (Incyte Corporation, priority 2018, dated 2022)
